Laboratory results published in US9580423B2, “Bicyclic heterocycles as FGFR4 inhibitors” (Incyte Corporation, priority 2015, dated 2017).

Legend:
[1] = target: FGFR3 (Homo sapiens (Human), UniProt P22607); assay: FGFR Enzymatic Assay (FRET peptide phosphorylation), FGFR3; conditions: read-out: FGFR3 IC50; pre-incubated for 4 hours
Text: (§1) The enzymes were purchased from Millipore or Invitrogen.
(§2) GraphPad prism3 was used to analyze the data. The IC50 values were derived by fitting the data to the equation for a sigmoidal dose-response with a variable slope. Y=Bottom+(Top-Bottom)/(1+10^((LogIC50−X)*HillSlope)) where X is the logarithm of concentration and Y is the response.

[2] = target: FGFR2 (Homo sapiens (Human), UniProt P21802); assay: FGFR Enzymatic Assay (FRET peptide phosphorylation), FGFR2; conditions: read-out: FGFR2 IC50; pre-incubated for 4 hours
FGFR2, sequence (P21802 22-821): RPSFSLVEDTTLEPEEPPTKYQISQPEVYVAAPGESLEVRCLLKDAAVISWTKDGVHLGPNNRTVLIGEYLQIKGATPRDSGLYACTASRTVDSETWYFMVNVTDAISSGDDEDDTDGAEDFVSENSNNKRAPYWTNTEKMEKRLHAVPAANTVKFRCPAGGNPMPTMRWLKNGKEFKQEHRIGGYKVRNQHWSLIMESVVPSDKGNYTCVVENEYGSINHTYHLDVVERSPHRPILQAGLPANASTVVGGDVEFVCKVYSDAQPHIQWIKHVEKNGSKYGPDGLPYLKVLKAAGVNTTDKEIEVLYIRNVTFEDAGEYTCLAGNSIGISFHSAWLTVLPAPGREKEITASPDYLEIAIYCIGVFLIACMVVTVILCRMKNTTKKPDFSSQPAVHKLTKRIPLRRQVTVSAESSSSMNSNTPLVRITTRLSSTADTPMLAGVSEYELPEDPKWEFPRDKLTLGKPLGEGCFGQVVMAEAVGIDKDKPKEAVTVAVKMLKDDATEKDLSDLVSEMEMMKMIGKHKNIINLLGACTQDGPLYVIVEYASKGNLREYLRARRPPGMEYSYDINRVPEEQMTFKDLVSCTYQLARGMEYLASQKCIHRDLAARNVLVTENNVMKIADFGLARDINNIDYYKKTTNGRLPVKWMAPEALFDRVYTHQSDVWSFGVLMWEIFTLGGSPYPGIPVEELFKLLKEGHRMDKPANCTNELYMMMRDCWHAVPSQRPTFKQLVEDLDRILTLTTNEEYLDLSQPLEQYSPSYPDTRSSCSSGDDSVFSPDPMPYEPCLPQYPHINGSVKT
Text: as §1, §2

[3] = target: FGFR4 (Homo sapiens (Human), UniProt P22455); assay: FGFR Enzymatic Assay (FRET peptide phosphorylation), FGFR4; conditions: pre-incubated for 4 hours; for FGFR1/FGFR4 IC50 ratio / FGFR2/FGFR4 IC50 ratio / FGFR3/FGFR4 IC50 ratio: IC50 ratio showing FGFR4 selectivity; for IC50: read-out: FGFR4 IC50
FGFR4, sequence (P22455 22-802): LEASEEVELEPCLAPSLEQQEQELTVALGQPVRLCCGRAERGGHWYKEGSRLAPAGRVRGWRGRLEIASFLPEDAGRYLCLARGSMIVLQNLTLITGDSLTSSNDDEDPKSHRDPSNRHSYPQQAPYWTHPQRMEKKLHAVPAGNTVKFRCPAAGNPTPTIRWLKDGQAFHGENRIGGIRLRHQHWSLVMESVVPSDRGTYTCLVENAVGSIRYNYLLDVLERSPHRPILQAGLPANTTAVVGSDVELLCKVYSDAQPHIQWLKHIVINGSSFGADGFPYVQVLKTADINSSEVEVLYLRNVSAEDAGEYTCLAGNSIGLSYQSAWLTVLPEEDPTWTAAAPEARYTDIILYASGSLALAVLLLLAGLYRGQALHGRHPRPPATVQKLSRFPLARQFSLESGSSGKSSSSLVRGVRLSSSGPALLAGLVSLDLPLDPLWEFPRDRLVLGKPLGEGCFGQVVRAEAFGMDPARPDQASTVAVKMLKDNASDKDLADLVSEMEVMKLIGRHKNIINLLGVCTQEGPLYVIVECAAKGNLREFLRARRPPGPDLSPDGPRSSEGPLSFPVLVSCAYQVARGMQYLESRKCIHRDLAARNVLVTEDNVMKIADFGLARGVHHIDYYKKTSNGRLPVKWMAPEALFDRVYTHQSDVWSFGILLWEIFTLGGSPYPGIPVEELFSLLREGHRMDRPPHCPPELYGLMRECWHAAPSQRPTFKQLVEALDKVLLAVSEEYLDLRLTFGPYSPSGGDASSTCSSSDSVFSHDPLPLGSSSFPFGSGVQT
Text: as §1, §2

[4] = target: FGFR1 (Homo sapiens (Human), UniProt P11362); assay: FGFR Enzymatic Assay (FRET peptide phosphorylation), FGFR1; conditions: read-out: FGFR1 IC50; pre-incubated for 4 hours
FGFR1, sequence (P11362 22-822): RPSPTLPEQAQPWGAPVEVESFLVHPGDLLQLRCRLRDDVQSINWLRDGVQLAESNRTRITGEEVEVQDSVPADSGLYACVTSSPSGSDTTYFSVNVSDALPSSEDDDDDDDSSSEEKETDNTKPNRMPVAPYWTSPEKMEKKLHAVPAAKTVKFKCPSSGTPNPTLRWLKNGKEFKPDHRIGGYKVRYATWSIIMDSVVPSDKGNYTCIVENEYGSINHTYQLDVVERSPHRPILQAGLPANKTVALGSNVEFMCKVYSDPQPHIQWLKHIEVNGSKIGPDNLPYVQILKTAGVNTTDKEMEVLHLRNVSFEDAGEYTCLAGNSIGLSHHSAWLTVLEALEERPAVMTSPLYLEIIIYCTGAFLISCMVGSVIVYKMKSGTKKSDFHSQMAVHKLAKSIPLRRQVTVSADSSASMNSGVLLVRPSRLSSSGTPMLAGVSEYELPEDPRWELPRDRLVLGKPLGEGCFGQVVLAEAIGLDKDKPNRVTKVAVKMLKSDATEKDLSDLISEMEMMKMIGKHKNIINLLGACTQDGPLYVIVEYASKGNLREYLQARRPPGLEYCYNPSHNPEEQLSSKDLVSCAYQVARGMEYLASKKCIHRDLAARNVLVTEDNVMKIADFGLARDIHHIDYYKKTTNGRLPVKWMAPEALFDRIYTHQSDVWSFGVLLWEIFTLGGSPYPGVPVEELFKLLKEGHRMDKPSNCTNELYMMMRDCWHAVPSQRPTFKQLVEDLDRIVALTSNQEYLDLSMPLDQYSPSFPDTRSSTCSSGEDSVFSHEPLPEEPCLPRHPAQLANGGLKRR
Text: as §1, §2

FGFR3, sequence (P22607 23-806): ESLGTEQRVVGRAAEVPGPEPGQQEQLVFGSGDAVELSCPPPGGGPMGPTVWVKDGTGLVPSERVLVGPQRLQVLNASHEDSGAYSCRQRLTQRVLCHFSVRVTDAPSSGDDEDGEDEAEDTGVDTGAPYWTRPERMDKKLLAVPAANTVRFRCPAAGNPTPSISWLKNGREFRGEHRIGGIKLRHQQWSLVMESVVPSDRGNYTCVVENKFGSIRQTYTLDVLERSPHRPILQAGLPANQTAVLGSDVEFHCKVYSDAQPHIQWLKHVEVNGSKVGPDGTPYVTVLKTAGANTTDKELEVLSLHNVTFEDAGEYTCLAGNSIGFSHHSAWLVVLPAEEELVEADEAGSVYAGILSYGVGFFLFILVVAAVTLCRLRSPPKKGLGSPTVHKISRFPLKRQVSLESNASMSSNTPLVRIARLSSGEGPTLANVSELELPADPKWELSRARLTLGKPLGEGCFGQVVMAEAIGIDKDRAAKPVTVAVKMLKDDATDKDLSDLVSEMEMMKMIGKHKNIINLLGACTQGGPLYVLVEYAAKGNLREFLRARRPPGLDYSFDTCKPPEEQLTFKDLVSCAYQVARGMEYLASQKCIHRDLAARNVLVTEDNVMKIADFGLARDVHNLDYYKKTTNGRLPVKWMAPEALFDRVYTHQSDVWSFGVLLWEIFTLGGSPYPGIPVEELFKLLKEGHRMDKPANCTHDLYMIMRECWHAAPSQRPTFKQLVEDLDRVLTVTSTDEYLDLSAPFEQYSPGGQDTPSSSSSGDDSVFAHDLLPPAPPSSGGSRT

SMILES | IC50 [1] [µM] | IC50 [2] [µM] | FGFR1/FGFR4 IC50 ratio [3] | FGFR2/FGFR4 IC50 ratio [3] | FGFR3/FGFR4 IC50 ratio [3] | IC50 [3] [µM] | IC50 [4] [µM]
C=CC(=O)Nc1cn(CCOC)nc1-c1cc2c(cn1)CN(c1c(F)c(OC)cc(OC)c1F)C(=O)C21CC1 [Example 32, N-(3-(2′-(2,6-difluoro-3,5-dimethoxyphenyl)-3′-oxo-2′,3′-dihydro-1′H-spiro[cyclopropane-1,4′-[2,7]naphthyridine]-6′-yl)-1-(2-methoxyethyl)-1H-pyrazol-4-yl)acrylamide] | > 0.2 | > 0.2 | >100 | >100 | >100 | < 0.01 | > 0.2
C=CC(=O)Nc1cn(CCOC(F)(F)F)nc1-c1cc2c(cn1)CN(c1c(F)c(OC)cc(OC)c1F)C(=O)C21CC1 [Example 33, N-(3-(2′-(2,6-difluoro-3,5-dimethoxyphenyl)-3′-oxo-2′,3′-dihydro-1′H-spiro[cyclopropane-1,4′-[2,7]naphthyridine]-6′-yl)-1-(2-(trifluoromethoxy)ethyl)-1H-pyrazol-4-yl)acrylamide] | > 0.2 | > 0.2 | >100 | >100 | >100 | < 0.01 | > 0.2
C=CC(=O)Nc1cn(CC(=O)N(C)C)nc1-c1cc2c(cn1)CN(c1c(F)c(OC)cc(OC)c1F)C(=O)C21CC1 [Example 36, N-(3-(2′-(2,6-difluoro-3,5-dimethoxyphenyl)-3′-oxo-2′,3′-dihydro-1′H-spiro[cyclopropane-1,4′-[2,7]naphthyridine]-6′-yl)-1-(2-(dimethylamino)-2-oxoethyl)-1H-pyrazol-4-yl)acrylamide] | > 0.2 | > 0.2 | >100 | >100 | >100 | < 0.01 | > 0.2
C=CC(=O)Nc1ccc(C)c(-c2ncc3c(n2)C2(CC2)C(=O)N(c2c(F)c(OC)cc(OC)c2F)C3)c1 [Example 37, N-(3-(6′-(2,6-difluoro-3,5-dimethoxyphenyl)-7′-oxo-6′,7′-dihydro-5′H-spiro[cyclopropane-1,8′-pyrido[4,3-d]pyrimidine]-2′-yl)-4-methylphenyl)acrylamide] | > 0.2 | > 0.2 | >100 | >100 | >100 | < 0.01 | > 0.2

Continued, values first:

IC50 [1] [µM] | IC50 [2] [µM] | FGFR1/FGFR4 IC50 ratio [3] | FGFR2/FGFR4 IC50 ratio [3] | FGFR3/FGFR4 IC50 ratio [3] | IC50 [3] [µM] | IC50 [4] [µM] | SMILES
> 0.2 | > 0.2 | >100 | >100 | >100 | < 0.01 | > 0.2 | C=CC(=O)Nc1cn(CCN2CCOCC2)nc1-c1cc2c(cn1)CN(c1c(F)c(OC)cc(OC)c1F)C(=O)C21CC1 [Example 34, N-(3-(2′-(2,6-difluoro-3,5-dimethoxyphenyl)-3′-oxo-2′,3′-dihydro-1′H-spiro[cyclopropane-1,4′-[2,7]naphthyridine]-6′-yl)-1-(2-morpholinoethyl)-1H-pyrazol-4-yl)acrylamide]
> 0.2 | > 0.2 | >100 | >100 | >100 | < 0.01 | > 0.2 | C=CC(=O)Nc1cn(CC2CCOCC2)nc1-c1cc2c(cn1)CN(c1c(F)c(OC)cc(OC)c1F)C(=O)C21CC1 [Example 35, N-(3-(2′-(2,6-difluoro-3,5-dimethoxyphenyl)-3′-oxo-2′,3′-dihydro-1′H-spiro[cyclopropane-1,4′-[2,7]naphthyridine]-6′-yl)-1-((tetrahydro-2H-pyran-4-yl)methyl)-1H-pyrazol-4-yl)acrylamide]
